Measured values from patent publication US6642012B1, “Spectroscopic determination of characteristic of biological material” (priority 1996, dated 2003).

System: Peripheral blood mononuclear cells (PBMC)
Experiment: FTIR monitoring of lymphocyte activation
Type: cell-based, human
Description: Peripheral blood mononuclear cells (PBMC) from two volunteers, isolated using gradient mixtures were twice washed in 0.9% saline and centrifuged. The resulting pellets were resuspended in 1 ml of saline. One half of each sample was activated with phorbol myristate acetate (PMA) and the other half used as a control. After 15 minutes the four portions were desiccated and transferred to a infrared cell for FTIR microanalysis. For each portion six spectra were recorded.

[1] = PMA activated vs non-activated lymphocytes, 15 minutes

For `CCCCCCCCCCCCCC(=O)O[C@@H]1[C@@H](C)[C@@]2(O)[C@@H](C=C(CO)C[C@]3(O)C(=O)C(C)=C[C@@H]23)[C@@H]2C(C)(C)[C@]12OC(C)=O` [PMA, phorbol myristate acetate], the “FTIR spectra of activated vs non-activated lymphocytes” value (PBMC from two volunteers, PMA activation 15 minutes, desiccated, FTIR microanalysis) was “marked differences”, the “amide II band” value (PMA activated lymphocytes, 15 minutes) was “multitude of shoulder peaks” and the “C—O stretch of fatty acyl groups (1400 cm-1) and C—O stretches of glycogen bands at 1058 and 1038 cm-1” value [1] was “much more intense”. The “amide I β-pleated sheet component band at 1634 cm-1” value [1] was “increase” and the “α-helical amide I band” value [1] was “reduction”.
